{
  "source": "patent US20100130604A1",
  "about": "“USE OF ROSMARINIC ACID IN MANUFACTURE OF MEDICAMENTS FOR TREATING OR PREVENTING HEPATIC AND RENAL DISEASES” (SHANGDONG LUYE NATURAL DRUG RESEARCH AND DEVELOPMENT CO., …, priority 2006, published 2010)",
  "key": {"CRF rats": {"test_system": "CRF rats", "assay": "CRF induced by 5/6 nephrectomy in rats", "type": "in vivo, Sprague Dawley rats"}, "hepatofibrosis in rats": {"test_system": "hepatofibrosis in rats", "assay": "CCl4-induced hepatofibrosis in chronic hepatitis in rats", "type": "in vivo, Sprague Dawley rats", "conditions": "6 weeks; for fiber proliferation level 0 (number of rats) / fiber proliferation level I (number of rats) / fiber proliferation level II (number of rats) / fiber proliferation level III (number of rats) / fiber proliferation level IV (number of rats): n=10", "method": "120 rats were randomly divided into 12 groups, with 10 in each group, namely, a normal control group, a model group, […] Apart from the normal control group, all rats were s.c. injected 0.3 ml of 40% solution of CC14 in oil per 100 g of body weight once every 3 days for 6 weeks. Animals in the normal control group were s.c. injected 0.3 ml/100 g body weight of oil vehicle following the same schedule as the experimental groups. First dose was doubled for all animals. Six weeks later, drugs were continuously administered to animals in each group for 6 weeks. After the administration was completed, all animals were anaesthetised with i.p. injection of 20% ethyl carbamate solution (Beijing Tongxian District Yucai Fine Chemicals). Blood was collected from abdominal aorta. Hepatic lobule tissue was removed, part of which was fixed with 10% neutral foinialin solution and made into wax blocks within 24-48 hours. […] Serum HA, LN, Pc III levels and hepatic HYP level were determined according to the respective kit instructions."}},
  "note": "Marks after values point to notes of the source that are not given here.",
  "data": [
    {"smiles": "O=C(/C=C/c1ccc(O)c(O)c1)O[C@H](Cc1ccc(O)c(O)c1)C(=O)O", "note": "[RA, R(+)2-{[3-(3,4-dihydroxylphenyl-(oxo-2-propenyl)oxy]3,4-dihydroxylphenylpropionic acid]}]", "values": [
      {"measurement": "Serum creatinine", "setting": "CRF rats; 4 weeks, i.v. 2.5 mg/kg", "value": "1.32 ± 0.18", "unit": "mg/dL"},
      {"measurement": "Serum urea nitrogen", "setting": "CRF rats; 4 weeks, i.v. 2.5 mg/kg", "value": "21.12 ± 2.40", "unit": "mg/dL"},
      {"measurement": "Serum creatinine", "setting": "CRF rats; 4 weeks, i.v. 5 mg/kg", "value": "1.29 ± 0.31", "unit": "mg/dL"},
      {"measurement": "Serum urea nitrogen", "setting": "CRF rats; 4 weeks, i.v. 5 mg/kg", "value": "16.90 ± 4.09", "unit": "mg/dL"},
      {"measurement": "Serum creatinine", "setting": "CRF rats; 4 weeks, i.v. 25 mg/kg", "value": "1.12 ± 0.24", "unit": "mg/dL"},
      {"measurement": "Serum urea nitrogen", "setting": "CRF rats; 4 weeks, i.v. 25 mg/kg", "value": "14.63 ± 3.25", "unit": "mg/dL"},
      {"measurement": "Serum creatinine", "setting": "CRF rats; 4 weeks, i.v. 75 mg/kg", "value": "1.02 ± 0.19", "unit": "mg/dL"},
      {"measurement": "Serum urea nitrogen", "setting": "CRF rats; 4 weeks, i.v. 75 mg/kg", "value": "13.39 ± 2.45", "unit": "mg/dL"},
      {"measurement": "Serum creatinine", "setting": "CRF rats; 4 weeks, i.v. 150 mg/kg", "value": "1.01 ± 0.33", "unit": "mg/dL"},
      {"measurement": "Serum urea nitrogen", "setting": "CRF rats; 4 weeks, i.v. 150 mg/kg", "value": "12.85 ± 3.88", "unit": "mg/dL"},
      {"measurement": "Serum creatinine", "setting": "CRF rats; 4 weeks, p.o. 5 mg/kg", "value": "1.55 ± 0.16", "unit": "mg/dL"},
      {"measurement": "Serum creatinine", "setting": "CRF rats; 4 weeks, p.o. 10 mg/kg", "value": "1.42 ± 0.24", "unit": "mg/dL"},
      {"measurement": "Serum urea nitrogen", "setting": "CRF rats; 4 weeks, p.o. 10 mg/kg", "value": "18.60 ± 3.11", "unit": "mg/dL"},
      {"measurement": "Serum creatinine", "setting": "CRF rats; 4 weeks, p.o. 50 mg/kg", "value": "1.53 ± 0.15", "unit": "mg/dL"},
      {"measurement": "Serum creatinine", "setting": "CRF rats; 4 weeks, p.o. 150 mg/kg", "value": "1.30 ± 0.22", "unit": "mg/dL"},
      {"measurement": "Serum urea nitrogen", "setting": "CRF rats; 4 weeks, p.o. 150 mg/kg", "value": "17.01 ± 3.95", "unit": "mg/dL"},
      {"measurement": "Serum creatinine", "setting": "CRF rats; 4 weeks, p.o. 300 mg/kg", "value": "1.29 ± 0.28", "unit": "mg/dL"},
      {"measurement": "Serum urea nitrogen", "setting": "CRF rats; 4 weeks, p.o. 300 mg/kg", "value": "16.76 ± 4.30", "unit": "mg/dL"},
      {"measurement": "Serum creatinine", "setting": "CRF rats; 8 weeks, i.v. 2.5 mg/kg", "value": "1.89 ± 0.22", "unit": "mg/dL"},
      {"measurement": "Serum urea nitrogen", "setting": "CRF rats; 8 weeks, i.v. 2.5 mg/kg", "value": "22.15 ± 3.09", "unit": "mg/dL"},
      {"measurement": "Serum creatinine", "setting": "CRF rats; 8 weeks, i.v. 5 mg/kg", "value": "1.75 ± 0.37", "unit": "mg/dL"},
      {"measurement": "Serum urea nitrogen", "setting": "CRF rats; 8 weeks, i.v. 5 mg/kg", "value": "21.73 ± 5.26", "unit": "mg/dL"},
      {"measurement": "Serum creatinine", "setting": "CRF rats; 8 weeks, i.v. 25 mg/kg", "value": "1.51 ± 0.32", "unit": "mg/dL"},
      {"measurement": "Serum urea nitrogen", "setting": "CRF rats; 8 weeks, i.v. 25 mg/kg", "value": "19.25 ± 3.19", "unit": "mg/dL"},
      {"measurement": "Serum creatinine", "setting": "CRF rats; 8 weeks, i.v. 75 mg/kg", "value": "1.39 ± 0.26", "unit": "mg/dL"},
      {"measurement": "Serum urea nitrogen", "setting": "CRF rats; 8 weeks, i.v. 75 mg/kg", "value": "15.07 ± 3.45", "unit": "mg/dL"},
      {"measurement": "Serum creatinine", "setting": "CRF rats; 8 weeks, i.v. 150 mg/kg", "value": "1.37 ± 0.44", "unit": "mg/dL"},
      {"measurement": "Serum urea nitrogen", "setting": "CRF rats; 8 weeks, i.v. 150 mg/kg", "value": "14.85 ± 3.88", "unit": "mg/dL"},
      {"measurement": "Serum creatinine", "setting": "CRF rats; 8 weeks, p.o. 5 mg/kg", "value": "2.09 ± 0.22", "unit": "mg/dL"},
      {"measurement": "Serum creatinine", "setting": "CRF rats; 8 weeks, p.o. 10 mg/kg", "value": "2.06 ± 0.21", "unit": "mg/dL"},
      {"measurement": "Serum urea nitrogen", "setting": "CRF rats; 8 weeks, p.o. 10 mg/kg", "value": "25.65 ± 2.57", "unit": "mg/dL"},
      {"measurement": "Serum urea nitrogen", "setting": "CRF rats; 8 weeks, p.o. 50 mg/kg", "value": "23.91 ± 4.00", "unit": "mg/dL"},
      {"measurement": "Serum creatinine", "setting": "CRF rats; 8 weeks, p.o. 150 mg/kg", "value": "1.76 ± 0.30", "unit": "mg/dL"},
      {"measurement": "Serum urea nitrogen", "setting": "CRF rats; 8 weeks, p.o. 150 mg/kg", "value": "21.96 ± 3.95", "unit": "mg/dL"},
      {"measurement": "Serum urea nitrogen", "setting": "CRF rats; 8 weeks, p.o. 300 mg/kg", "value": "20.76 ± 5.50", "unit": "mg/dL"},
      {"measurement": "serum creatinine and urea nitrogen levels vs model group", "setting": "CRF rats; i.v. 2.5, 5, 25, 75, 150 mg/kg, p.o. 5, 10, 50, 150, 300 mg/kg", "value": "can all significantly reduce serum creatinine and urea nitrogen levels"},
      {"measurement": "renal pathological changes (HE, PAS)", "setting": "CRF rats; week 4", "value": "alleviated in RA treated animals in a dose-dependent manner"},
      {"measurement": "T (Rank-sum test of fibrosis)", "setting": "hepatofibrosis in rats; RA i.v. 2.5 mg/kg", "value": "82*"},
      {"measurement": "fiber proliferation level 0 (number of rats)", "setting": "hepatofibrosis in rats; RA i.v. 2.5 mg/kg", "value": 0},
      {"measurement": "fiber proliferation level I (number of rats)", "setting": "hepatofibrosis in rats; RA i.v. 2.5 mg/kg", "value": 1},
      {"measurement": "fiber proliferation level II (number of rats)", "setting": "hepatofibrosis in rats; RA i.v. 2.5 mg/kg", "value": 2},
      {"measurement": "fiber proliferation level III (number of rats)", "setting": "hepatofibrosis in rats; RA i.v. 2.5 mg/kg", "value": 3},
      {"measurement": "fiber proliferation level IV (number of rats)", "setting": "hepatofibrosis in rats; RA i.v. 2.5 mg/kg", "value": 4},
      {"measurement": "T (Rank-sum test of fibrosis)", "setting": "hepatofibrosis in rats; RA i.v. 5 mg/kg", "value": "81.5*"},
      {"measurement": "fiber proliferation level 0 (number of rats)", "setting": "hepatofibrosis in rats; RA i.v. 5 mg/kg", "value": 0},
      {"measurement": "fiber proliferation level I (number of rats)", "setting": "hepatofibrosis in rats; RA i.v. 5 mg/kg", "value": 1},
      {"measurement": "fiber proliferation level II (number of rats)", "setting": "hepatofibrosis in rats; RA i.v. 5 mg/kg", "value": 2},
      {"measurement": "fiber proliferation level III (number of rats)", "setting": "hepatofibrosis in rats; RA i.v. 5 mg/kg", "value": 6},
      {"measurement": "fiber proliferation level IV (number of rats)", "setting": "hepatofibrosis in rats; RA i.v. 5 mg/kg", "value": 1},
      {"measurement": "T (Rank-sum test of fibrosis)", "setting": "hepatofibrosis in rats; RA i.v. 25 mg/kg", "value": "76*"},
      {"measurement": "fiber proliferation level 0 (number of rats)", "setting": "hepatofibrosis in rats; RA i.v. 25 mg/kg", "value": 0},
      {"measurement": "fiber proliferation level I (number of rats)", "setting": "hepatofibrosis in rats; RA i.v. 25 mg/kg", "value": 2},
      {"measurement": "fiber proliferation level II (number of rats)", "setting": "hepatofibrosis in rats; RA i.v. 25 mg/kg", "value": 3},
      {"measurement": "fiber proliferation level III (number of rats)", "setting": "hepatofibrosis in rats; RA i.v. 25 mg/kg", "value": 4},
      {"measurement": "fiber proliferation level IV (number of rats)", "setting": "hepatofibrosis in rats; RA i.v. 25 mg/kg", "value": 1},
      {"measurement": "T (Rank-sum test of fibrosis)", "setting": "hepatofibrosis in rats; RA i.v. 75 mg/kg", "value": "71**"},
      {"measurement": "fiber proliferation level 0 (number of rats)", "setting": "hepatofibrosis in rats; RA i.v. 75 mg/kg", "value": 0},
      {"measurement": "fiber proliferation level I (number of rats)", "setting": "hepatofibrosis in rats; RA i.v. 75 mg/kg", "value": 3},
      {"measurement": "fiber proliferation level II (number of rats)", "setting": "hepatofibrosis in rats; RA i.v. 75 mg/kg", "value": 2},
      {"measurement": "fiber proliferation level III (number of rats)", "setting": "hepatofibrosis in rats; RA i.v. 75 mg/kg", "value": 5},
      {"measurement": "fiber proliferation level IV (number of rats)", "setting": "hepatofibrosis in rats; RA i.v. 75 mg/kg", "value": 0},
      {"measurement": "T (Rank-sum test of fibrosis)", "setting": "hepatofibrosis in rats; RA i.v. 150 mg/kg", "value": "66**"},
      {"measurement": "fiber proliferation level 0 (number of rats)", "setting": "hepatofibrosis in rats; RA i.v. 150 mg/kg", "value": 0},
      {"measurement": "fiber proliferation level I (number of rats)", "setting": "hepatofibrosis in rats; RA i.v. 150 mg/kg", "value": 3},
      {"measurement": "fiber proliferation level II (number of rats)", "setting": "hepatofibrosis in rats; RA i.v. 150 mg/kg", "value": 4},
      {"measurement": "fiber proliferation level III (number of rats)", "setting": "hepatofibrosis in rats; RA i.v. 150 mg/kg", "value": 3},
      {"measurement": "fiber proliferation level IV (number of rats)", "setting": "hepatofibrosis in rats; RA i.v. 150 mg/kg", "value": 0},
      {"measurement": "T (Rank-sum test of fibrosis)", "setting": "hepatofibrosis in rats; RA p.o. 2.5 mg/kg", "value": 95},
      {"measurement": "fiber proliferation level 0 (number of rats)", "setting": "hepatofibrosis in rats; RA p.o. 2.5 mg/kg", "value": 0},
      {"measurement": "fiber proliferation level I (number of rats)", "setting": "hepatofibrosis in rats; RA p.o. 2.5 mg/kg", "value": 1},
      {"measurement": "fiber proliferation level II (number of rats)", "setting": "hepatofibrosis in rats; RA p.o. 2.5 mg/kg", "value": 2}
    ]}
  ]
}
